Assay results reported in patent US11130801B2, “Method for inhibiting platelet derived growth factor signaling with C3aR or C5aR antibodies” (CASE WESTERN RESERVE UNIVERSITY, priority 2011, dated 2021).

How the values were obtained:
[1] = test system: NIH-3T3 cells; assay: TGF-β1 production and effect in PDGF-AA treated NIH-3T3 cells; format: cell-based
From the text: Antagonizing C3aR/C5aR signal transduction induces the synthesis and activation of TGF-β1. We investigated whether TGF-β1 production might underlie the growth suppression connected with C3aR/C5aR blockade. To test this, 1) we assayed supernatants from NIH-3T3 cells treated with PDGF-AA+anti-C3a/anti-C5a mAbs and 2) following removal of anti-C3a/anti-C5a from the mAb treated NIH-3T3 cell cultures (with protein-G beads), we added supernatants without or with anti-TGF-β1 blocking antibody to fresh cultures of PDGF-AA treated NIH-3T3 cells. […] Activation of latent TGF-β1 can be dependent on Thrombospondin 1 (Tsp-1). […] Collectively, these findings indicate that 1) disruption of C3aR/C5aR signaling evokes TGF-β1 production, 2) TGF-β1 enters into an autocrine signaling loop, and 3) C3aR/C5aR signals and TGF-β1 signals oppose each other in regulating PDGF induced growth.

[2] = test system: HUVEC; assay: Complement mRNA transcripts in HUVEC by qPCR; format: cell-based; details: added C3a or C5a
Experimental: FIG. 33 illustrates charts showing qRT-PCR analysis of C3, factor B and factor D transcripts from HUVEC under hypoxia. A) HUVEC treated with TNF-α, IL-1, and IFN-γ. Blue bars represent samples after treatment. B-C) HUVEC stimulated with C3a (10 ng/ml for 2 hr) or C5a (10 ng/ml for 30 min) Blue bars represent control without C3a/C5a stimulation while red bars represent samples after stimulation. D) HUVEC incubated for 1 hr with FCCP+IAA. Blue bars represent control without hypoxia treatment while yellow bars represent two samples after hypoxia treatment.
We next conversely assessed how transducing C3aR/C5aR signals into ECs affects endogenous EC complement production and whether it is connected with “classical” EC responses. We incubated HUVEC with 1) inflammatory cytokines, 2) the mitochondrial uncoupler protonophore carbonyl cyanide p-(trifluoromethoxy)phenylhydrazone (FCCP)+iodoacetate (IAA) (which mimics hypoxia), or 3) C3a or C5a, after which we assayed complement mRNA transcripts by qPCR. […]
ECs and leukocytes locally synthesize C3/fB/fD/C5 and the elicited C3a/C5a signal through C3aR/C5aR on the same cells to amplify this synthesis. To determine whether ECs locally synthesize AP complement components, we added IL-1/IFN-γ/TNF-α to HUVEC, 1 hr after which we quantified C3 and fB transcripts by qPCR. […]

[3] = test system: T cell; assay: T cell activation in response to anti-CD3/28 stimulation; format: cell-based
From the text: (§1) Since some MMPs (MMP-9) is/are constitutively expressed and prothrombin synthesis and secretion might be induced by VEGF-A, prothrombin can cleaved to thrombin by an MMP, e.g., MMP-9 and thrombin, in turn, generates C5a from locally produced C5. The MMP inhibitor alternatively could exert its inhibitory effect on VEGF-A induced EC growth by the pathway that couples C3aR/C5aR signal transduction back to VEGFR2.

[4] = test system: ECs; assay: Proliferation of ECs in response to VEGF-A stimulation (thrombin/MMP inhibitors); format: cell-based
From the text: as §1

[5] = test system: NIH-3T3 cells; assay: C5a ELISA of NIH-3T3 culture supernatants; format: cell-based; details: PDGF-AA treated cells
Experimental: FIG. 31 illustrates charts showing: (A) C5a (17 ng/mL) added to NIH-3T3 cells. Bars represent 72 hr counts. (B) PDGF-AA was added to NIH-3T3 cells and a 72 hr culture supernatants were assayed for C5a by ELISA.
PDGF contributes to atherogenesis and plays a central role in neointimal proliferation following EC injury. In view of the growth difference of primary cultured Daf1^−/−, WT, C3aR^−/−C5aR^−/−, and C3^−/−C5^−/−SMCs, we examined whether C3aR/C5aR signals are interconnected with PDGF growth induction. For these studies, we utilized NIH-3T3 fibroblasts (which express PDGFR-αα) in conjunction with PDGF-AA. Following determination of optimal PDGF-AA doses, we incubated 1×10^5 cells/well in triplicate with 30 ng/ml of PDGF-AA±10 ng/ml of C3aR and C5aR antagonists (C3aR-A/C5aR-A), 10 ng/ml of anti-C3a/anti-C5a mAbs or respective controls, after which we quantified cell growth by counting cell numbers over time. […] To directly establish whether C5aR signals augment PDGF-AA growth signaling, we 1) quantified the effect of added C5a one growth, and 2) assayed C5a in culture supernatants of PDGF-AA treated cells. […] Because the dependence of PDGF growth induction on C3aR/C5aR signaling could be indirect, i.e., a consequence of its requirement for viability, we performed cell cycle assays.

[6] = test system: MS-1 ECs; assay: Growth of MS-1 ECs with VEGF-A or IL-6; format: cell-based, murine; details: IL-6 alone
Experimental: FIG. 27 illustrates plots showing the growth of ECs in response to VEGF induces C3aR/C5aR signaling via an IL-6 and Stat3 dependent mechanism. VEGF-A was added to serum starved MS-1 cells in the absence or presence of anti-IL-6 neutralizing mAb (2 μg/ml) and growth was quantified at 24, […] and 72 hr.
FIG. 28 illustrates plots showing the growth of serum starved MS-1 cells in the absence or presence of C3aR-A/C5aR-A (10 ng/ml each) and IL-6 (10 ng/ml) at 24, 48 and 72 hr.
For studies with bEnd.3 and MS-1 cells, 5×10^4 cells were plated in 24-well plates and allowed to adhere for 24 hr. Following culturing in 0.5% FBS with DMEM for another 24 hours, the cells were treated as described in the FIG. legends. Growth was quantified manually at 24, 48 and 72 hr with trypan blue. At least 95% of cells were viable in all experiments. VEGF-A was used at a concentration of 30 ng/ml, C3a and C5a at 1 ug/ml, and […] at I ug/ml.
Numerous past studies have linked VEGF with both IL-6 and p-Stat3 our prior studies by ourselves has shown that C5a induces IL-6 and that IL-6 signaling is interconnected with C3aR/C5aR signaling. To determine if the linkage between VEGF and C3aR/C5aR signaling in ECs involves IL-6, we incubated MS-1 ECs with 1) VEGF-A alone, IL-6 alone, or VEGF-A plus anti-IL-6 mAb, or with 2) IL-6 alone or IL-6 plus C3aR-A/C5aR-A, and assayed cell growth. […]

[7] = test system: Stat3; assay: Stat3 phosphorylation in serum starved MS-1 cells; format: cell-based, murine; details: growth factor alone
Experimental: FIG. 29 illustrates a chart showing phosphor-Stat3 of serum starved MS-1 cells incubated for 10 min at 37° C. with VEGF-A or IL-6 in the absence or presence of anti-IL-6 mAb or C3aR-A/C5aR-A.
Numerous past studies have linked VEGF with both IL-6 and p-Stat3 our prior studies by ourselves has shown that C5a induces IL-6 and that IL-6 signaling is interconnected with C3aR/C5aR signaling. To determine if the linkage between VEGF and C3aR/C5aR signaling in ECs involves IL-6, we incubated MS-1 ECs with 1) VEGF-A alone, IL-6 alone, or VEGF-A plus anti-IL-6 mAb, or with 2) IL-6 alone or IL-6 plus C3aR-A/C5aR-A, and assayed cell growth. […] The growth induction of ECs of IL-6, like that of VEGF-A, was abolished by C3aR-A/C5aR-A (FIG. 28). Both VEGF-A and IL-6 induced Stat3 phosphorylation and the Stat3 phosphorylation in both cases was abolished by C3aR/C5aR antagonism (FIG. 29). […] These finding thus indicate that VEGF interconnects with C3aR/C5aR signaling via the induction of IL-6 and its activation of Stat3.

[8] = test system: C3aR−/−C5aR−/− ECs; assay: Growth of C3aR-/-C5aR-/- primary ECs; format: cell-based, mice; details: without or with added C5a

Compound: TGF-β1: active TGF-β1 elicited in supernatants of mAb treated NIH-3T3 cells
- suppression of PDGF-AA induced growth ([1]; elicited TGF-β1 in transferred supernatants): 5 fold

Compound: C3a: complement activation fragment (anaphylatoxin) added to cells
- production of AP components by ECs [2]: more AP components
- transcription of C3 [2]: increased

Compound: ANGIOMAX: thrombin specific inhibitor
- T cell activation [3]: virtually abolish
- proliferation of ECs / VEGF induced EC growth induction [4]: abolish

Compound: PDGF-AA: platelet derived growth factor, 30 ng/ml
- suppression of TGF-β1 mRNA transcription ([1]; RT-PCR of PDGF-AA treated cells): ~3 fold
- C5a generation by NIH-3T3 cells [5]: amplified

Compound: NC(N)=NCCC[C@H](NC(=O)[C@@H]1CCCN1C(=O)[C@H](N)Cc1ccccc1)C(=O)CCl [PPACK]
- T cell activation [3]: virtually abolish
- proliferation of ECs / VEGF induced EC growth induction [4]: abolish

Compound: IL-6: cytokine added to MS-1 cells (10 ng/ml)
- induction of EC growth [6]: comparably to VEGF-A
- Stat3 phosphorylation [7]: induced

Compound: Cc1cc(C)c(/C=C2\C(=O)Nc3ccccc32)[nH]1 [SU5416]
- growth of C3aR−/−C5aR−/− ECs [8]: abolished
